Laboratory results taken from paper PMC9797592, “TJ-M2010-5, a novel CNS drug candidate, attenuates acute cerebral ischemia-reperfusion injury through the MyD88/NF-κB and ERK pathway” (Frontiers in Pharmacology, 2022).

Tests used:
[1] = system: LPS-stimulated BV-2 cells; experiment: LPS-stimulated BV-2 cell model: morphology and TNF-α/IL-6 ELISA; assay type: cell-based; conditions: LPS-stimulated BV-2 cells; pretreatment 2 h, LPS 24 h; ELISA
Procedure: (§1) BV-2 microglial and SH-SY5Y cells were cultured as previously described ([Zhao et al., 2020]). A lipopolysaccharide (LPS)-stimulated BV-2 cell model was established to mimic severe neuroinflammation induced by multiple inflammatory mediators after reperfusion ([Li et al., 2021]). BV-2 cells were pretreated with different concentrations of TJ-5 for 2 h before LPS (1 μg/ml) stimulation (#L2880, Sigma, United States). Twenty-4 hours later, BV-2 cells and the culture supernatants were harvested for subsequent experiments. In addition, ST2825, a recognized MyD88 inhibitor, was used as positive control group.
Enzyme-linked immunosorbent assay (ELISA) kits were used to detect the levels of TNF-α, IL-1β, and IL-6 in the brain. Brain tissue was homogenized in 1 ml of phosphate-buffered saline using a tissue homogenizer. Then, the homogenates were centrifuged at 14,000 g for 10 min at 4 °C. The supernatant was immediately transferred for measurement following the manufacturer’s instructions. BV-2 cells were incubated with different treatments and the supernatants were collected and measured.

[2] = system: NF-κB p65; experiment: NF-κB p65 nuclear translocation in LPS-stimulated BV-2 cells, immunofluorescence; assay type: cell-based; conditions: 12 h after LPS stimulation
Procedure: as §1, with “Twenty-4 hours later, BV-2 cells and the culture supernatants were harvested for subsequent experiments.” left out
For BV-2 cells immunofluorescence staining, the cells were fixed with 4% paraformaldehyde for 10 min and permeabilized with 0.5% Triton X-100 for 10 min. After blocking with goat serum, the cells were sequentially incubated with the primary antibody, secondary antibody, and Hoechst in sequence. Images were captured using a confocal microscope. The fluorescence intensity was analyzed using ImageJ software.

[3] = system: CIRI mice; experiment: MCAO cerebral ischemia-reperfusion injury model: neurological deficit score and TTC infarct volume; assay type: in vivo, C57BL/6 mice; conditions: edaravone 3 mg/kg i.v. at 1 h of ischemia; 24 h reperfusion; TTC; I/R group 34.24%
Procedure: Male C57BL/6 mice (Beijing Vital River Laboratory Animal Technology Co. Ltd., Beijing, China) weighing 22–28 g and aged 8–10 weeks were used. All animal experiments were approved by the Institutional Animal Care and Use Committee of Tongji Hospital (Wuhan, China). All procedures were performed in accordance with specific pathogen-free standards. Mice were randomly divided into the following seven groups: sham, I/R, vehicle (I/R + saline), I/R + TJ-5 (5 mg/kg), I/R + TJ-5 (10 mg/kg), I/R + TJ-5 (15 mg/kg), and I/R + edaravone (3 mg/kg).
The mice were anesthetized with 1% pentobarbital sodium solution via intraperitoneal injection, and the body temperature was maintained at 37.0°C–37.5°C. The middle cerebral artery occlusion (MCAO) model was established according to the Longa method, as described previously ([Longa et al., 1989]). In brief, the right carotid artery was carefully separated and exposed. A silicon-coated embolic suture (Doccol, United States) was inserted slowly from the external carotid artery (ECA) into the internal carotid artery (ICA) until it reached the middle cerebral artery (MCA). After 1 h of ischemia, the embolic suture was withdrawn. The surgical procedure in the sham group was the same as that in the I/R group, but the MCA was not obstructed.
After 24 h of reperfusion, each group of mice was scored blindly, according to the scoring system of the Longa method ([Longa et al., 1989]). The score was 0 for no obvious neurological deficit, one for inability to fully extend the left forelimb, two for turning to the left, three for leaning to the left while walking, and four for the inability to walk spontaneously and impaired consciousness.
The mice were sacrificed 24 h after I/R. Mouse brains were harvested for the measurement of cerebral infarct volume. The brains were frozen at −80°C for 5 min and cut into five 2-mm thick slices. The slices were then placed in a small dish, 2% 2,3,5-triphenyltetrazolium chloride (TTC) solution (Sigma, United States) was added, and 4% paraformaldehyde was used for fixation. Images were captured using a digital camera. ImageJ software was used to measure the volume of the brain infarction.

NC(=O)[C@H]1CCS[C@@H]2C[C@]3(CCCN3C(=O)Cc3ccc(NC(=O)COc4ccc(Cl)cc4Cl)cc3)C(=O)N12 [ST2825, reference compound]
levels of TNF-α and IL-6 in supernatants [1]: same anti-inflammatory effect | LPS-induced NF-κB p65 nuclear translocation [2]: same

CC1=NN(c2ccccc2)C(=O)C1 [edaravone, reference compound]
percentage of infarct volume [3]: 18.59%
